Laboratory results taken from PubChem BioAssay (NCI).
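Assay format: 96-well plates, 48-hour exposure. GI50 is the concentration that inhibits growth by half. The concentration for full growth arrest is given as TGI.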

Experiments:
Test in all cases: inhibition of tumour cell growth, NCI panel, 48 h
[1] = system: UACC-62 melanoma
[2] = system: HOP-62 NSCLC
[3] = system: HCT-116 colon
[4] = system: OVCAR-3 ovarian
[5] = system: NCI/ADR-RES ovarian
[6] = system: HS 578T breast
[7] = system: DU-145 prostate
[8] = system: LOX IMVI melanoma
[9] = system: SF-268 CNS
[10] = system: PC-3 prostate

SMILES	TGI [1] [µM]	TGI [2] [µM]	TGI [3] [µM]	TGI [4] [µM]	TGI [5] [µM]	TGI [6] [µM]	TGI [7] [µM]	TGI [8] [µM]	TGI [9] [µM]	TGI [10] [µM]	GI50 [1] [nM]	GI50 [2] [nM]	GI50 [3] [nM]	GI50 [4] [µM]	GI50 [5] [nM]	GI50 [6] [µM]	GI50 [7] [µM]	GI50 [8] [nM]	GI50 [9] [µM]	GI50 [10] [µM]
Cc1ccc(S(=O)(=O)N(CC(O)COc2ccccc2)c2ccccc2Cl)cc1 (centres undefined)	21.5	34.8	27.7	42.1	37.8	26.4	57.5	38.8	35.7	30.8										
CCOC(=O)C(NS(=O)(=O)c1ccccc1)(C(F)(F)F)P(=O)(OCC(C)C)OCC(C)C (centres undefined)	> 100	> 100	> 100	> 100	> 100	> 100	> 100	> 100	> 100	> 100										
CN(C)CC(O)CNC(=O)Nc1ccccc1 (centres undefined)	> 100	> 100	> 100	> 100	> 100	> 100	> 100	> 100	> 100	> 100										
COc1cc2ccnc3c2c(c1OC)N(C)C=C3	80.3	> 100	37.9	> 100	76.4	> 100	> 100	50.4	> 100	> 100										
COc1ccc(/C=C2\CCC(C)(CN(C)C)C2=O)cc1Br (centres undefined)	20	97	32.1	35.2	43.2	85.4	> 100	35.3	23.3	39.7										
Nc1ccc(Oc2ccc(C34CC5CC(C3)CC(c3ccc(Oc6ccc(N)c(O)c6)cc3)(C5)C4)cc2)cc1O	6.59	12		5.05	6.12	4.97	3.3	3.11	2.9	5.69										
O=C(/C=C/c1cc2ccccc2[nH]c1=O)c1ccc(O)cc1	8.73	8.18	4.38	11.8	> 100	> 100	14.3	12.7	23.3	55.3	2880	2620	1940	3.22	2900	6.14	4.02	2470	3.76	5.39
O=C(NC12CC3CC(CC(C3)C1)C2)n1cnc2c(Cl)ncnc21	> 100	> 100	> 100	51.3	> 100	97.7	63.9	37.9	57.4	66.6										
CCCCCCCCC/C=C1/CC(CO)(COC(=O)C2CCCCC2)OC1=O (centres undefined)	> 100	> 100	> 100	> 100	> 100	> 100	> 100	> 100	> 100	> 100										
O=[N+]([O-])c1cc(-c2ccc([As](=O)(O)O)cc2)ccc1[As](=O)(O)O	> 100	> 100	> 100	> 100	> 100	> 100	> 100	> 100	> 100	> 100										
Cc1nc(-n2nc(-c3ccccc3)cc2-c2ccccc2)sc1C(/C=C\c1ccc([N+](=O)[O-])cc1)=N/NC(=S)NN	> 57.7	52.2	41	> 70.7	85.3	> 100	98.9	> 66.5	> 61.3	> 100										
CCOP(=O)(OCC)C(Cc1cn(S(=O)(=O)c2ccc(C)cc2)cn1)C(=O)O (centres undefined)	> 100	> 100	> 100	> 100	> 100	> 100	> 100	> 100	> 100	> 100										
COc1cc2c(cc1OC)C/C(=N\O)c1cc(OC)c(OC)cc1/C=C\2	> 58	> 27	> 39.2	17.3	89.3	15.1	> 64	25.6	> 100	> 100										
COc1cc([C@@H]2c3cc4c(cc3[C@H](OC3OC5COC(C(C)C)OC5C(O)C3O)C3COC(=O)[C@@H]32)OCO4)cc(OC)c1OC (some centres undefined)	26.6	25.4	7.8	8.55	> 79.5	> 30.9	55.5	27	> 100	22.4										
COC(=O)c1cc(NC(=O)Cn2c3ccccc3c3ccccc32)cn1C	73.9	50.6	> 100	> 100	> 100	42.4	> 100	> 100	> 100	> 100										
O=C(O)C(=Cc1ccc(-c2ccc([N+](=O)[O-])cc2)o1)C(=O)O	> 100	> 100	> 100	> 100	> 100	> 100	> 100	> 100	> 100	> 100										
O=C(O)Cn1cnc2c(=O)[nH]c(Nc3ccccc3)nc21	> 100	> 100	> 100	> 100	> 100	> 100	> 100	> 100	> 100	> 100										
CC(C)(C)c1ccc(OCCOc2ccc(C(C)(C)C)cc2NC=O)c(NC=O)c1	28.1	28	33.5	36.5	37.7	42.8	> 87.9	19.2	65.8	> 100										
COC(=O)[C@@]1(Cc2ccc(OC(C)=O)cc2)Cc2cc3ccccc3n2N1	> 100	> 100	> 100	> 100	96.4	> 100	> 100	> 100	> 100	> 100										
